According to patent publication US20120015939A1, “TOPICAL TREATMENT OF NEUROPATHIC PAIN AND METHODS OF DIAGNOSIS” (Arcion Therapeutics, Inc., priority 2010, published 2012):
Like-named read-outs stand apart in the source and are kept apart here.

How the values were obtained:
[1] = system: pain associated with painful diabetic neuropathy (PDN)
Protocol: Pain was assessed each day using a pain diary using a standardized numerical pain rating scale (NPRS). The average pain for each week was calculated and the difference from baseline was determined (week x minus baseline). […] The baseline pain scores were imputed for missing data arising from premature withdrawal from the study (BOCF, baseline observation carried forward).
Capsaicin 0.1% was applied to the pretibial area between the knee and ankle in each patient. The area was occluded for 30 minutes, at which time patients rated the painfulness of the capsaicin stimulus. It was reasoned that in patients with PDN that the afferented group would detect and rate the capsaicin stimulus as painful, while the deafferented group would fail to detect the stimulus.

[2] = topical 0.1% and 0.2% clonidine
Protocol: The dosage formulation is administered from once a day to several times a day, depending on the patient. […] The dose is determined by the region of pain. […] The area treated is constrained by the systemic dosing.

[3] = in vivo; cited from earlier work
[4] = clinical; conditions: human, in vivo
Description: In study CLO-027, blood samples for PK analysis were obtained at baseline, and at Weeks 2 and 12 of treatment.

[5] = system: painful diabetic neuropathy; conditions: systemic clonidine by transdermal patches; cross-over; cited from earlier work
[6] = system: painful diabetic neuropathy; conditions: cited from earlier work

SMILES: Clc1cccc(Cl)c1N=C1NCCN1 [clonidine]
- Efficacy over placebo in relieving diabetic pain (change in NPRS over time) ([1]; capsaicin pain rating of two or more, 0 to 10 scale (FIG. 4C)): significantly superior to placebo
- Efficacy over placebo in relieving diabetic pain (change in NPRS over time) ([1]; patients who did not detect the capsaicin stimulus (FIG. 4A)): no efficacy over placebo
- Efficacy over placebo in relieving diabetic pain (change in NPRS over time) ([1]; subjects who detected capsaicin, pain rating > 0 (FIG. 4B)): significantly superior to placebo
- Mean blood level [2]: below 0.1 ng/mg
- Patients with no detectable clonidine in the blood [2]: one third of patients had no detectable clonidine in the blood
- Lower threshold blood level considered necessary to treat hypertension [3]: 0.200 ng/mL
- concentration at 2 weeks [4]: 0.017 ng/mL
- concentration at 12 weeks [4]: 0.019 ng/mL
- Difference in pain between clonidine patches and placebo patches [5]: no statistically significant difference
- Pain reduction relative to placebo ([6]; responders rechallenged at highest patch dosage, p<0.015): modest although statistically significant
- Patients considered clonidine responders ([6]; twelve of forty-one patients who completed the initial course of treatment): 29%
